Earlier results on one molecule are cited in PMC11185183 (PNAS Nexus, 2024).

This series has as its system GC-B.

Each structure is given as a SMILES string.

Regarding `CN(C)CCN1CCCC(C(=O)Nc2nc3c(F)cc(F)cc3s2)C1` (stereo not shown) [MCUF-651], the “action on GC-B” value is recorded as “lacked any action”.
